Results from paper PMC3639985, “Differential Ligand Binding Affinities of Human Estrogen Receptor-α Isoforms” (PLoS ONE, 2013).
Read-outs that look alike come from different tables or passages of the source. One block for each compound: values may come before it.

Legend:
palmitoylated ER66 = assay: Native gel electrophoresis / Western blot of palmitoylated ER66 in eukaryotic cell-free expression system; type: biochemical, human; conditions: 2-bromopalmitate 100 µM
palmitoylated ER46 = assay: Native gel electrophoresis / Western blot of palmitoylated ER46 in eukaryotic cell-free expression system; type: biochemical, human; conditions: 2-bromopalmitate 100 µM
ER36 = target: ER36; set-up: method as in PMID 20197310; conditions: previous studies; cited from earlier work
human ER46 = target: T1, human ER46 (Homo sapiens, UniProt P03372); assay: Competitive [3H]-17β-estradiol ligand binding assay, ER46
T1 sequence (P03372 1-422 isoform P03372-3): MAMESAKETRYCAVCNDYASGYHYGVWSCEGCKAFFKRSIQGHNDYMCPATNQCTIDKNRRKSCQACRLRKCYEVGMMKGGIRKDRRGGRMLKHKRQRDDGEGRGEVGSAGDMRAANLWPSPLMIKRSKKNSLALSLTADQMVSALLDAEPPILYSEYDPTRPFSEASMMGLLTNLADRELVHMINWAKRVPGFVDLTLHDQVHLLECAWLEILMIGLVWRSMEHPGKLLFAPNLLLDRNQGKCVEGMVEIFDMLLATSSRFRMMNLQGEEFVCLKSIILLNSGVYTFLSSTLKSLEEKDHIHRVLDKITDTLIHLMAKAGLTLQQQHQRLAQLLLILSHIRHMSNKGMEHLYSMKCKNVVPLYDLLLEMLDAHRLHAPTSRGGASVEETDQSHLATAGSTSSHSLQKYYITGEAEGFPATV

human ER66 = target: T2, human ER66 (Homo sapiens, UniProt P03372); assay: Competitive [3H]-17β-estradiol ligand binding assay, ER66
T2 sequence (P03372 1-595): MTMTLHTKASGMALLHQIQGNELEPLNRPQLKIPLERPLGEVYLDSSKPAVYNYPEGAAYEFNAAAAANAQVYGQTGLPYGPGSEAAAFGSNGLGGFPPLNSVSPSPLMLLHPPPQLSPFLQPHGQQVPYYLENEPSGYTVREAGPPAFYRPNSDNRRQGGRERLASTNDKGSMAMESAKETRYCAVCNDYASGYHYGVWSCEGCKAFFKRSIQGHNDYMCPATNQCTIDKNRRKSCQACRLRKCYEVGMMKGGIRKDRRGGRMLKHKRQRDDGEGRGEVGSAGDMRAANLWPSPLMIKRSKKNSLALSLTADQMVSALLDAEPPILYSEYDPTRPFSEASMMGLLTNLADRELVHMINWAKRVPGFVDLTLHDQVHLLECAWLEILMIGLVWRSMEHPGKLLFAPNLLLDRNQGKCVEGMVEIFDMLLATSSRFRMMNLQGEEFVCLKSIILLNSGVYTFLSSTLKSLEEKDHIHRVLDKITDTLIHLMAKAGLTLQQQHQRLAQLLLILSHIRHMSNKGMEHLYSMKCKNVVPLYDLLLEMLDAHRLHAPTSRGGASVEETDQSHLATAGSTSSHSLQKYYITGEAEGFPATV

ERα over ERβ = conditions: cited from earlier work
[1] = ratio of IC50 values of 17β-estradiol and compound, 17β-estradiol set at 100

Compound: CCCCCCCCCCCCCCC(Br)C(=O)O (stereo not drawn) [2-bromopalmitate, 2-bromohexadecanoic acid]
expression of palmitoylated ER66 (palmitoylated ER66): abolished
expression of palmitoylated ER46 (palmitoylated ER46): abolished

Compound: C[C@]12CC[C@@H]3c4ccc(O)cc4CC[C@H]3[C@@H]1CC[C@@H]2O [17β-estradiol]
Kd (ER36): 2.2 nM

RBA ER46 (human ER46; [1]): 0.002
RBA ER66 (human ER66; [1]): 0.003
Compound: O=c1c(-c2ccc(O)cc2)coc2cc(O)ccc12 [Daidzein, daidzein]

IC50 (human ER46): 3330 nM
RBA ER46 (human ER46): 0.001
IC50 (human ER66): 1330 nM
RBA ER66 (human ER66; [1]): 0.003
Compound: Oc1ccc(-c2c(-c3ccccc3)nn3c(C(F)(F)F)cc(C(F)(F)F)nc23)cc1 [PHTPP, 4-[2-phenyl-5,7-bis(trifluoromethyl)pyrazolo[1,5-a]pyrimidin-3-yl]phenol]

RBA ER46 (human ER46; [1]): 23016
RBA ER66 (human ER66; [1]): 42052
Compound: CCCc1c(-c2ccc(O)cc2)nn(-c2ccc(O)cc2)c1-c1ccc(O)cc1 [PPT, propylpyrazole triol]

RBA ER46 (human ER46): 0.498
higher affinity for ER46 when compared to ICI 182,780 (human ER46): four-fold
RBA ER66 (human ER66): 0.305
Compound: methyl-piperidino-pyrazole dihydrochloride [MPP]
selectivity for ERα over ERβ (ERα over ERβ): 200 fold
